The values below come from US8076455B2, “Guanosine triphosphate (GTP)-binding protein-coupled receptor protein, BG37” (Merck Sharp & Dohme Corp., priority 2000, dated 2011).

What all share (assay type): cell-based
Assay [1] concerns the target T1, human BG37 (Homo sapiens, UniProt Q8TDU6).
T1 construct: Human BG37 gene cut out, utilizing the BamHI-EcoRV site, from pCR2.1-BG37ORF was subcloned into the BamHI-EcoRV digested pKT52 vector; expressed in transfected cells
T1 sequence (Q8TDU6 1-330): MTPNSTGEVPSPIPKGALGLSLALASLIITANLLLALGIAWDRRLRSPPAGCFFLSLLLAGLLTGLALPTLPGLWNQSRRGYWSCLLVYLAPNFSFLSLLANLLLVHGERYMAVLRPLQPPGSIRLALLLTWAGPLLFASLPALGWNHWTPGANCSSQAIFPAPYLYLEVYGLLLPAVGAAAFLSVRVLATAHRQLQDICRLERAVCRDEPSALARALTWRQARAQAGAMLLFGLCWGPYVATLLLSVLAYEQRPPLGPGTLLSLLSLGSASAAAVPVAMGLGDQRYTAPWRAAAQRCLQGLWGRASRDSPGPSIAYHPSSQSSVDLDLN
The assay can be described thus: Bile acid-dependent increase of intracellular cAMP level (HTRF) in cells expressing the human BG37. To be noted: cells expressing the human BG37 (HEK/hBG37); reagent at various concentrations, 37° C. for 20 minutes. The procedure:
The intracellular cAMP level in the presence of a ligand was measured to determine the increase of the intracellular cAMP level through G proteins bound to the seven-transmembrane receptor.
On the day before the measurement of the intracellular cAMP level, cells were re-plated at a cell density of 4×10^4 cells/well on a poly-D-lysin-coated 96-well plate (Becton Dickinson), and then incubated at 37° C. for another 24 hours. Cells of the stable cell line were rinsed twice with 1 mM 3-Isobutyl-1-Methylxanthine (IBMX) (Nacalai Tesque) containing Opti-MEM solution (GIBCO BRL) (Opti-MEM-BSA-IBMX solution), and then incubated at 37° C. for 20 minutes. After removing the supernatant, Opti-MEM-IBMX solution containing a reagent at various concentrations was added thereto. The resulting mixture was incubated at 37° C. for 20 minutes. Then, the cells were lysed with 0.5% Triton X-100 to determine the level of intracellular cAMP.
Measurement of the intracellular cAMP level was carried out using cyclic AMP kit (HTRF) (Nihon Schering) according to the provided manual.

Assay [2] addresses T1, human BG37. Nature of the assay: Assay of intracellular cAMP level (EIA) in human BG37-expressing cells (HEK/hBG37), steroid hormones. To be noted: steroid hormone at various concentrations, 37° C. for 15 minutes. How it is done: On the day before the measurement of the intracellular cAMP level, cells were re-plated at a cell density of 4×10^4 cells/well on a poly-D-lysin-coated 96-well plate (Becton Dickinson), and then incubated at 37° C. for another 24 hours.

The subject of assay [3] is mock-transfected cells which contained the vector alone. Nature of the assay: Intracellular cAMP level (EIA) in mock-transfected cells containing the vector alone (control cells). The note with it: various concentrations, 37° C. for 15 minutes. The procedure: Intracellular cAMP levels were determined using the method of Zlokarmik et al. (Science 279, 84 (1998)). The intracellular cAMP level in cells that reacted with the ligand was measured to determine the increase of intracellular cAMP level through G proteins bound to the seven-transmembrane receptor.
On the day before the measurement of the intracellular cAMP level, cells were re-plated at a cell density of 4×10^4 cells/well on a poly-D-lysin-coated 96-well plate (Becton Dickinson), and then incubated at 37° C. for another 24 hours. Cells of the stable cell line were rinsed twice with 0.1% BSA (SIGMA) and 1 mM 3-Isobutyl-1-Methylxanthine containing Opti-MEM solution (GIBCO BRL: Opti-MEM-BSA-IBMX solution) (Nacalai Tesque Inc.: IBMX), and then incubated at 37° C. for 20 minutes. After removing the supernatant, Opti-MEM-BSA-IBMX solution containing at various concentrations a steroid hormone, such as progesterone, was added thereto. The resulting mixture was incubated at 37° C. for 15 minutes. Then, the cells were lysed with Lysis Buffer to measure the level of intracellular cAMP.
The measurement of the intracellular cAMP level was carried out using cyclic AMP enzyme immuno-assay (EIA) system (Amersham Pharmacia Biotech) according to the provided manual.

In the case of `C[C@H](CCC(=O)O)[C@H]1CC[C@H]2[C@@H]3[C@H](O)C[C@@H]4C[C@H](O)CC[C@]4(C)[C@H]3C[C@H](O)[C@]12C` [cholic acid], the “intracellular cAMP level” value in assay [1] is “elevated”.
`C[C@]12CCC(=O)C=C1CC[C@@H]1[C@@H]2CC[C@]2(C)C(=O)CC[C@@H]12` [androstenedione]: in assay [2], the “intracellular cAMP level” value was “increased in a concentration-dependent manner”.
Turning to `CC(=O)[C@H]1CC[C@H]2[C@@H]3CCC4=CC(=O)CC[C@]4(C)[C@H]3CC[C@]12C` [progesterone], the “concentration-dependent increase of intracellular cAMP” value in assay [3] was “not observed”.
Turning to `C[C@H](CCC(=O)O)[C@H]1CC[C@H]2[C@@H]3[C@H](O)C[C@@H]4C[C@H](O)CC[C@]4(C)[C@H]3CC[C@]12C` [chenodeoxycholic acid], in assay [1], the “intracellular cAMP level” value is “elevated”.
